Test results reported in PMC3381515 (Immunity, 2011).

System: TCR and CD8 on F5 T cells
Experiment: Micropipette adhesion frequency assay, F5 T cells vs pMHC-coated RBCs
Type: binding, mouse
Conditions: 32 NP68:H-2D^b/μm^2, BAPTA-AM 50 μM, PD98059 50 μM

CC(=O)OCOC(=O)CN(CC(=O)OCOC(C)=O)c1ccccc1OCCOc1ccccc1N(CC(=O)OCOC(C)=O)CC(=O)OCOC(C)=O [BAPTA-AM]
effect on two-stage kinetics / upregulated adhesion: two-stage kinetics were unaffected
